Data as given in patent US12357611B2, “Sulcardine administration for treatment of acute atrial fibrillation” (HUYABIO International, LLC, priority 2018, dated 2025).
Where a name gives a salt, the structure may show the parent alone.

What was measured:
healthy subjects [1] = assay: Phase 1 single ascending iv dose trial: continuous 12-lead Holter ECG, baseline and placebo subtracted (ΔΔ) ECG intervals at Cmax; type: in vivo, human; conditions: single iv doses 20 to 600 mg
Procedure: (§1) HBI-3000 (sulcardine sulfate) was administered to human subjects according to the protocol provided in ClinicalTrials.gov Identifier: NCT03397641. That protocol is incorporated herein by reference in its entirety.
(§2) Objective: Provided herein are the safety, tolerability, pharmacokinetics and electrocardiogram (ECG) results of a Phase 1 single ascending dose trial of intravenous (iv) HBI-3000 in healthy subjects.
(§3) Methods: […] subjects were randomized to 6 cohorts of 8 subjects to receive 1 of 5 single ascending iv doses (Table 2) of HBI-3000 or placebo (6:2), with 2 cohorts receiving the 600 mg dose. Doses of RBI-3000 ranged from 20 mg (Cohort A), 60 mg (Cohort B), 180 mg (Cohort C), 360 mg (Cohort D), to 600 mg (Cohort E and F). Drug was a lyophilized powder, reconstituted to […] then diluted in saline for delivery via intravenous infusion as a 50 mL solution over 30 minutes.
Continuous 12-lead Holter ECG data were recorded at baseline and 11 time points thereafter. Mean baseline and placebo subtracted (ΔΔ) ECG intervals (QTcF, HR, PR, QRS, and P-wave duration [PDur]) and T-wave segments (J to T peak [JTp] and T peak to T end [TpTe]) were calculated at Cmax for each dose.
Table 2 summarizes ECG data at Cmax for each dose, as predicted by mixed-effects modeling. […] The increases in QRS and PDur are consistent with block of INa-Peak. […]

[2] = Phase 1 single ascending iv dose trial: pharmacokinetics (plasma sulcardine); type: in vivo, human; conditions: iv infusion, various dosages, FIG. 1
Procedure: as §1, §2, §3

healthy subjects [3] = assay: Phase 1 single ascending iv dose trial: safety and tolerability; type: in vivo; conditions: single iv doses 20 to 600 mg
Procedure: as §1, §2, §3

[4] = Chen et al.; cited from earlier work

SMILES | dose dependence of ECG parameter changes (healthy subjects [1]) | removal from plasma after Cmax ([2]; listed as sulcardine sulfate) | tolerability, dose limiting adverse events or arrhythmias (healthy subjects [3]) | removal from plasma after Cmax [2] | half-life for oral administration [4]
COc1ccc(S(=O)(=O)NCc2cc(CN3CCCC3)c(O)c(CN3CCCC3)c2)cc1 [HBI-3000, sulcardine sulfate] | dose-proportional changes in all ECG parameters | quickly removed or isolated from plasma | well tolerated with no dose limiting adverse events or arrhythmias observed |  | 
COc1ccc(S(=O)(=O)NCc2cc(CN3CCCC3)c(O)c(CN3CCCC3)c2)cc1 [sulcardine, N-[4-hydroxy-3,5-bis(1-pyrrolidinylmethyl)benzyl]-4-methoxybenzenesulfonamide] |  |  |  | largely removed or isolated from plasma at 1.0 hours | about 16 hours
